Measured values reported in US9045482B2, “Pyrido[4,3-B]indoles and methods of use” (Medivation Technologies, Inc., priority 2009, dated 2015).

Assays:
[1] = biological target: T1, human recombinant serotonin (5-Hydroxytryptamine) 5-HT2A receptor (Homo sapiens, UniProt P28223); assay: Serotonin 5-HT2A radioligand binding ([3H]Ketanserin)
T1 construct: expressed in transfected cells; host or cells: Chinese hamster ovary (CHO-K1) cells
Method: (§1) (1997), 68:1998] in a 50 mM Tris-HCl buffer, pH 7.4, was used. Compounds of the invention were incubated with 0.5 nM [^3H]Ketanserin for 60 min at 25° C. Non-specific binding was estimated in the presence of 1 μM Mianserin. Receptor proteins were filtered and washed, the filters were then counted to determine [^3H]Ketanserin specifically bound. Compounds were screened at 1 μM or lower, using 1% DMSO as vehicle. Biochemical assay results are presented as the percent inhibition of specific binding in Table 4.

[2] = biological target: T2, human recombinant serotonin (5-Hydroxytryptamine) 5-HT6 receptor (Homo sapiens, UniProt P50406); assay: Serotonin 5-HT6 radioligand binding ([3H]LSD)
T2 construct: expressed in transfected cells; host or cells: human HeLa cells
T2 sequence (P50406 whole entry): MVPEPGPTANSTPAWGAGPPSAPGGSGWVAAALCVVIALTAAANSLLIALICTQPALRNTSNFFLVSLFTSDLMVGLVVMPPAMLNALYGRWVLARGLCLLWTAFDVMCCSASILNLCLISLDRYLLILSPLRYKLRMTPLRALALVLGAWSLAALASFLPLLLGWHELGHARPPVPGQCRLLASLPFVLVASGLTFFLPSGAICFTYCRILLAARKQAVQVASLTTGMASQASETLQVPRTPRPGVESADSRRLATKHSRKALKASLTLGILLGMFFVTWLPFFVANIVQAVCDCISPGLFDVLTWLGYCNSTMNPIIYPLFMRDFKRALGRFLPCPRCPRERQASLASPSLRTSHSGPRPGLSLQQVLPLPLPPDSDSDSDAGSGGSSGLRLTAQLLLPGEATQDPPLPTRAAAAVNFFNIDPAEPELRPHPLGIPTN
Method: (§2) Compounds of the invention were incubated with 1.5 nM [3H]Lysergic acid diethylamide (LSD) for 120 min at 37° C. […] Receptor proteins were filtered and washed, the filters were then counted to determine [3H]LSD specifically bound. Compounds were screened at 1 μM or lower, using 1% DMSO as vehicle. Biochemical assay results are presented as the percent inhibition of specific binding in Table 4.

[3] = biological target: human recombinant dopamine D2L receptor (Homo sapiens, UniProt P14416); assay: Dopamine D2L radioligand binding ([3H]Spiperone)
Chain of human recombinant dopamine D2L receptor (P14416 whole entry): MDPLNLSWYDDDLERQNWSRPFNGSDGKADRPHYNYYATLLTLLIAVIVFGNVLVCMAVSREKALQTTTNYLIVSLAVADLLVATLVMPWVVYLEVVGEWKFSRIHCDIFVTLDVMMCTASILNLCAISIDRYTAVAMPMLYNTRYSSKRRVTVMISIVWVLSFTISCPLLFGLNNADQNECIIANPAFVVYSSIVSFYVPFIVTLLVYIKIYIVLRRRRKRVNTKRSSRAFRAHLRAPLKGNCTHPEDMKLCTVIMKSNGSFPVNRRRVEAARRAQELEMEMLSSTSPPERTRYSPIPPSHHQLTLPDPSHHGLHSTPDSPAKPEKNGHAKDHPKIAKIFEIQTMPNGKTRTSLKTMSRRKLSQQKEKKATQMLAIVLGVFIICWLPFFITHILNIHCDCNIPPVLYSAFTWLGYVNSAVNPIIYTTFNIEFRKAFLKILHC
Method: To evaluate in radioligand binding assays the activity of compounds of the invention, human recombinant dopamine D2L receptor expressed in Chinese hamster ovary (CHO) cells [Grandy, D. K. et al., Proc. Natl. Acad. Sci. USA. (1989), 86:9762; Hayes, G. et al., Mol. Endocrinol. […] Compounds of the invention were incubated with 0.16 nM [^3H]Spiperone for 120 min at 25° C. Non-specific binding was estimated in the presence of 10 μM Haloperidol. Receptor proteins were filtered and washed, the filters were then counted to determine [^3H]Spiperone specifically bound. Compounds were screened at 1 μM or lower, using 1% DMSO as vehicle. Biochemical assay results are presented as the percent inhibition of specific binding in Table 3.

[4] = biological target: T3, human recombinant histamine H2 receptor (Homo sapiens, UniProt P25021); assay: Histamine H2 radioligand binding (Aminopotentidine); settings: read-out: Binding data (Percentage Inhibition) Histamine Binding H2
T3 construct: expressed in transfected cells; host or cells: Chinese hamster ovary (CHO) K1 cells
T3 sequence (P25021 whole entry): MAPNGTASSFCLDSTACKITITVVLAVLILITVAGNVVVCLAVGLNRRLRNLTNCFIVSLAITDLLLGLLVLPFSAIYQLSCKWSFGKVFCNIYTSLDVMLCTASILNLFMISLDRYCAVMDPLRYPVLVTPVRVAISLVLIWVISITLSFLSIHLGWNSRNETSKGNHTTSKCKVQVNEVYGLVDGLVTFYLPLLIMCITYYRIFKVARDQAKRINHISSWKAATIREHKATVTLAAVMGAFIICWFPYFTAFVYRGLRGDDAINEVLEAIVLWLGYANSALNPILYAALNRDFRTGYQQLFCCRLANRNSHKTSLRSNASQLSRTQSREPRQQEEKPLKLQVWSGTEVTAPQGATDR
Method: To evaluate in radioligand binding assays the activity of compounds of the invention, human recombinant histamine H2 receptor expressed in Chinese hamster ovary (CHO) K1 cells [Ruat, M., Proc. Natl. Acad. Sci. USA. (1990), 87(5):1658] in a 50 mM Phosphate buffer, pH 7.4 was used. Compounds of the invention were incubated with 0.1 nM […] for 120 min at 25° C. Non-specific binding was estimated in the presence of 3 μM Tiotidine. Receptor proteins were filtered and washed, the filters were then counted to determine […] specifically bound. Compounds were screened at 1 μM or lower, using 1% DMSO as vehicle. Biochemical assay results are presented as the percent inhibition of specific binding in Table 2.

[5] = biological target: T4, human recombinant serotonin (5-Hydroxytryptamine) 5-HT2C receptor (Homo sapiens, UniProt P28335); assay: Serotonin 5-HT2C radioligand binding ([3H]Mesulergine)
T4 construct: expressed in transfected cells; host or cells: Chinese hamster ovary (CHO-K1) cells
T4 sequence (P28335 33-458): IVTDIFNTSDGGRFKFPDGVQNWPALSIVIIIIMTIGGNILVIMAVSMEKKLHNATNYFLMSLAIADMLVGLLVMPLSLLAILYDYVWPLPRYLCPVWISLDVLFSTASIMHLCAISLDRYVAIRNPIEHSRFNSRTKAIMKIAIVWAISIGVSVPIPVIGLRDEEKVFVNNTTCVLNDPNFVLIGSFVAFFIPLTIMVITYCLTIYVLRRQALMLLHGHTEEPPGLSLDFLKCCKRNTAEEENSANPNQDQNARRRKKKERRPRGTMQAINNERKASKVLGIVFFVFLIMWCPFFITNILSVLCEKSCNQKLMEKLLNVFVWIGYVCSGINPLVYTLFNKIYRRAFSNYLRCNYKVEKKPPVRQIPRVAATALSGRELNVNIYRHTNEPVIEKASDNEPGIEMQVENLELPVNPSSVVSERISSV
Method: as §1, with “69:1449]” for “68:1998]”, “modified Tris-HCl buffer (50” for “50”, “Tris-HCl,” for “Tris-HCl buffer,”, “7.4, 0.1% Ascorbic Acid, 10 μM Pargyline)” for “7.4,”, “1” for “0.5”, “[^3H]Mesulergine” for “[^3H]Ketanserin”

[6] = biological target: human recombinant serotonin (5-Hydroxytryptamine) 5-HT7 receptor (Homo sapiens, UniProt P34969); assay: Serotonin 5-HT7 radioligand binding ([3H]LSD)
Chain of human recombinant serotonin (5-Hydroxytryptamine) 5-HT7 receptor (P34969 whole entry): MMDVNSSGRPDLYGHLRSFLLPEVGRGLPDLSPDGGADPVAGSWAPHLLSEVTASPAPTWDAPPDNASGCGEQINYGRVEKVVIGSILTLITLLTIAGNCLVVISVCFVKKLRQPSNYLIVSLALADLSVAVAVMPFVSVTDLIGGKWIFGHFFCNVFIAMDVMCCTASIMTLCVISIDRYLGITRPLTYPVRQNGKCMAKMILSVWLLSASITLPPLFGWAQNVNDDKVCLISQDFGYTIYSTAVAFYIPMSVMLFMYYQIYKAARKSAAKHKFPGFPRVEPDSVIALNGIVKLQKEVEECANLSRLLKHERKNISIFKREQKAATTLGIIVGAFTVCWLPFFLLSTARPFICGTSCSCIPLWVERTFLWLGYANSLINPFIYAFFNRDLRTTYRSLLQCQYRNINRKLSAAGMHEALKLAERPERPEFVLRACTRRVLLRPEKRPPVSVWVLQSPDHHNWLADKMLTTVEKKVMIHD
Method: as §2, with “of” for “of the”, “5.5” for “1.5”, “[^3H]Lysergic” for “[3H]Lysergic”, “2 h” for “120 min”, “25°” for “37°”, “[^3H]LSD” for “[3H]LSD”

[7] = biological target: human recombinant histamine H1 receptor (Homo sapiens, UniProt P35367); assay: Histamine H1 radioligand binding ([3H]Pyrilamine); settings: 1 μM; for inhibition at 1 µM: read-out: Binding data (Percentage Inhibition) Histamine Binding H1
Chain of human recombinant histamine H1 receptor (P35367 whole entry): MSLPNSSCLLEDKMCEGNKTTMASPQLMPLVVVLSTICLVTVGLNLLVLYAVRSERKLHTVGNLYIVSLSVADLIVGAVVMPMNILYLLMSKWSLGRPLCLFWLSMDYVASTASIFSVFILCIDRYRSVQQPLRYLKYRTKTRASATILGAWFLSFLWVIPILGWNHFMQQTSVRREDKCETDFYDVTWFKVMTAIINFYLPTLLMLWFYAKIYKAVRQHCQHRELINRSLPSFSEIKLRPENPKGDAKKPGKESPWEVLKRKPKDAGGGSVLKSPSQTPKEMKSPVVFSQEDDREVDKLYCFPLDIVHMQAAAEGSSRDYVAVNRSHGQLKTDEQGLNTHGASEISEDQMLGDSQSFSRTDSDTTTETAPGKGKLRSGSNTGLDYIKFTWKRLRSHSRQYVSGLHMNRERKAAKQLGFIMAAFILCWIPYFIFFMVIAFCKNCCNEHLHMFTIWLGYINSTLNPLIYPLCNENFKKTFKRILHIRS
Method: To evaluate in radioligand binding assays the activity of compounds of the invention, human recombinant histamine H1 receptor expressed in Chinese hamster ovary (CHO) cells [De Backer, M. et al., Biochem. Biophys. Res. Comm. (1993), 197(3):1601] in a modified Tris-HCl buffer (50 mM Tris-HCl, pH 7.4, 2 mM MgCl2, 100 mM NaCl, 250 mM Sucrose) was used. Compounds of the invention were incubated with 1.2 nM [^3H]Pyrilamine for 180 min at 25° C. Non-specific binding was estimated in the presence of 1 μM pyrilamine. Receptor proteins were filtered and washed, the filters were then counted to determine [^3H]Pyrilamine specifically bound. Compounds were screened at 1 μM or lower, using 1% DMSO as vehicle. Biochemical assay results are presented as the percent inhibition of specific binding in Table 2.

T1 sequence (P28223 whole entry): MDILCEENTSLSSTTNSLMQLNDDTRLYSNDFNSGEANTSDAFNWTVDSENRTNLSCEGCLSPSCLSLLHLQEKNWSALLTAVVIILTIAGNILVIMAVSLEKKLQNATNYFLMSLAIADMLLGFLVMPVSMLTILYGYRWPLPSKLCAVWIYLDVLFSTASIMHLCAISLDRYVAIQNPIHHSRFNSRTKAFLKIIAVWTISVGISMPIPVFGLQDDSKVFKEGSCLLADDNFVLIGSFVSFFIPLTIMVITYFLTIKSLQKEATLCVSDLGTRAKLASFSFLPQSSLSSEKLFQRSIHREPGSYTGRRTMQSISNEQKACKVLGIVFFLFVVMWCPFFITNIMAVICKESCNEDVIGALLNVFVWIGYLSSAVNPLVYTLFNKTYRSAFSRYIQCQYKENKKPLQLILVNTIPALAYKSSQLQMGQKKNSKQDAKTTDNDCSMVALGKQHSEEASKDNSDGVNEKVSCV

SMILES | Percent Inhibition of ligand binding Serotonin 5-HT2A ([1]; 1 μM ligand concentration) [%] | Percent Inhibition of ligand binding Serotonin 5-HT6 ([2]; 1 μM ligand concentration) [%] | Percent Inhibition of ligand binding Dopamine D2L ([3]; 1 μM ligand conc.) [%] | inhibition at 1 µM [4] [%] | Percent Inhibition of ligand binding Serotonin 5-HT2C ([5]; 1 μM ligand concentration) [%] | Percent Inhibition of ligand binding Serotonin 5-HT7 ([6]; 1 μM ligand concentration) [%] | inhibition at 1 µM [7] [%] | Percent Inhibition of ligand binding Serotonin 5-HT2A ([1]; 0.1 μM ligand concentration) [%] | Percent Inhibition of ligand binding Serotonin 5-HT6 ([2]; 0.1 μM ligand concentration) [%] | Percent Inhibition of ligand binding Dopamine D2L ([3]; 0.1 μM ligand conc.) [%] | Percent Inhibition of ligand binding Serotonin 5-HT2C ([5]; 0.1 μM ligand concentration) [%] | Binding data (Percentage Inhibition) Histamine Binding H1 [7] [%] | Percent Inhibition of ligand binding Serotonin 5-HT7 ([6]; 0.1 μM ligand concentration) [%]
CC(=Cn1c2c(c3cc(C)ccc31)CN1CCCC1C2)c1ccc(F)cc1 (stereo in doubt) [Compound 3, (E)-10-(2-(4-fluorophenyl)prop-1-enyl)-7-methyl-2,3,5,10,11,11a-hexahydro-1H-indolizino [7,6-b]indole] | 90 | 101 | 11 | 97 | 99 | 94 | 88 |  |  |  |  |  | 
CC(=Cn1c2c(c3cc(C)ccc31)C1CCCN1CC2)c1ccc(F)cc1 (stereo in doubt) [Compound 4, (E)-7-(2-(4-fluorophenyl)prop-1-enyl)-10-methyl-2,3,5,6,7,11c-hexahydro-1H-indolizino[7,8-b]indole] | 99 | 103 | 90 | 75 | 99 | 101 | 41 | 87 | 100 | 59 | 88 | 53 | 
CC(=Cn1c2c(c3cc(C)ccc31)CN1CCCCC1C2)c1ccc(F)cc1 (stereo in doubt) [Compound 5, (E)-5-(2-(4-fluorophenyl)prop-1-enyl)-2-methyl-5,6,6a,7,8,9,10,12-octahydroindolo[2,3-b]quinolizine] | 98 | 96 | 28 | 97 | 92 | 97 | 76 |  |  |  |  |  | 
CC(=Cn1c2c(c3cc(C)ccc31)C1CCCCN1CC2)c1ccc(F)cc1 (stereo in doubt) [Compound 6, (E)-8-(2-(4-fluorophenyl)prop-1-enyl)-11-methyl-1,2,3,4,6,7,8,12c-octahydroindolo[3,2-a]quinolizine] | 99 | 105 | 94 | 67 | 94 | 92 | 28 |  |  |  |  |  | 
FC(F)(F)c1ccc(CCn2c3c(c4cccnc42)CN2CCCC2C3)cn1 (stereo not drawn) [Compound 39, 11-(2-(6-(trifluoromethyl)pyridin-3-yl)ethyl)-7,8,9,9a,10,11-hexahydro-5H-pyrido[3′,2′:4,5]pyrrolo[3,2-f]indolizine] |  |  |  |  |  |  |  | 24 | −5 |  |  |  | 2
FC(F)(F)c1ccc(CCn2c3c(c4cccnc42)C2CCCN2CC3)cn1 (stereo not drawn) [Compound 40, 7-(2-(6-(trifluoromethyl)pyridin-3-yl)ethyl)-2,3,5,6,7,11c-hexahydro-1H-pyrido[3′,2′:4,5]pyrrolo[2,3-g]indolizine] |  |  |  |  |  |  |  | 6 | 1 |  |  |  | 10
Cc1cnc2c(c1)c1c(n2CCc2ccc(C(F)(F)F)nc2)CCN2CCCC12 (stereo not drawn) [Compound 43, 10-methyl-7-(2-(6-(trifluoromethyl)pyridin-3-yl)ethyl)-2,3,5,6,7,11c-hexahydro-1H-pyrido[3′,2′:4,5]pyrrolo[2,3-g]indolizine] |  |  |  |  |  |  |  | 7 | 5 |  |  |  | 22
Cc1cnc2c(c1)c1c(n2CCc2ccc(C(F)(F)F)nc2)CC2CCCN2C1 (stereo not drawn) [Compound 44, 3-methyl-11-(2-(6-(trifluoromethyl)pyridin-3-yl)ethyl)-7,8,9,9a,10,11-hexahydro-5H-pyrido[3′,2′:4,5]pyrrolo[3,2-f]indolizine] |  |  |  |  |  |  |  | 65 | 9 |  |  |  | 24
